Results: US20040147595A1, “Biofilm degrading or sloughing compositions and methods” (priority 2001, published 2004)

How the values were obtained:
Format in all cases: cell-based, Pseudomonas aeruginosa
[1] = test system: P. aeruginosa PAO1 biofilm; test: Wild type P. aeruginosa PAO1 flowcell biofilm, lasB-gfp(ASV) reporter and Rfp tag, long term
Procedure: P. aeruginosa biofilms. Biofilms were grown at 30° C. in three-dimensional flow cells (Christensen et al., 1999) with individual channel dimensions of 0.3×4×40 mm supplied With ABt minimal medium supplemented with 2% LB. The flow system was assembled and prepared as described by Christensen et al. (1999). The substratum consisted of a microscope glass coverslip (Knittel 24×50 mm st1, Knittel Glaser, Braunschweig, Germany). Cultures for inoculation of the flow channels were prepared in the following way: P. aeruginosa strains were streaked on LB plates with the appropriate antibiotics and incubated for 24 h at 37° C. From each plate a single colony was used for inoculation of 10 ml ABt with 10% LB. The cultures were grown at, 30° C. for 18 h before they were diluted to an OD600 nm of 0.1 in sterile 0.9% NaCl and used for inoculation of the flow channels. Medium flow was kept at a constant rate of 3 mL/h, equivalent to a mean flow velocity of 0.7 mm/s, using a Watson-Marlow 205S peristaltic pump (Watson-Marlow, Falmouth, England). Biofilms were grown for 24 hours before being shifted to media containing AHL and furanone.
Scanning confocal laser microscopy (SCLM). Microscopic inspection and image acquisition were performed an a scanning confocal laser microscope (model TCS4D, Leica Lasertechnik GmbH, Heldelberg, Germany) equipped with a 63×/1.32-0.6 oil objective. The microscope was equipped with a motorized and programmable xy-stage, which was used for monitoring single colonies during the biofilm experiments. At the beginning of each online experiment, the microscope was programmed to track single randomly selected microcolonies; the sensitivity of photo multipliers and the laser intensity were adjusted and thereafter kept constant through out the duration of the experiments. Image scanning was carried out using the 488 nm and 568 nm lines of an Ar/Kr laser for detection of Gfp and Rfp, respectively. Visualization of captured images was performed using the IMARIS software package (Bitplane AG, Zúrich, Switzerland) running on a Silicon Graphics Indigo 2 workstation (Silicon Graphics, Mountain View, Calif. USA).
Furanone 66 represses lasB-expression in wild type P. aeruginosa biofilms. Wild type P. aeruginosa (PAO1) carrying a chromosomally integrated lasB-gfp(ASV) reporter system was grown in flowcells similar to the PAO-JP2-based reporter strain. We focused on studying the effect of furanone 56 in loan term biofilm experiments. In favor of this approach is the observation by Davies et al. (1998) that quorum sensing is involved in maturation of P. aeruginosa biofilms (up to 2 weeks old). In order to support such longterm cultivation, the biofilm medium was modified to contain 0.3 mM glucose instead of 2% LB as a carbon source. In addition, the recently available Red Fluorescent Protein (Rfp) derived from the indopacific sea anemone Discosome was employed to provide a red fluorescent tag on the biofilm bacteria. A mini-Tn5 transposon with the dsred gene under control of the strong constitutive lac promoter was inserted into the chromosome of PAO1 containing the lasB reporter system.
The dual-labeled PAO1 strain was inoculated A grown in flowcells in the absence and presence of 5 μg/ml furanone 56. The flowcells were inspected daily for ten days and scanning confocal photomicrographs were captured (FIG. 6 & 7). For clarity, the green and red fluorescent signals from the same area of the biofilm are shown separately. Because the cells constitutively express Rfp, the red color correlates with cell mass, whereas the green fluorescence indicates active transcription of the lasB-gfp(ASV) reporter gene in response to on-going bacterial communication.

[2] = test system: P. aeruginosa protein synthesis; test: Constitutive Gfp-expression (pMH306) in PAO1, protein synthesis control; details: PAO1 with pMH306, furanone 0 to 10 μ/ml; data not shown
Procedure: To determine if the furanone compound worked specifically on the las quorum sensor and not indirectly by disruption of primary metabolic functions, we followed growth as optical density of P. aeruginosa PAO1 in the presence of furanone 56. […] Further, we tested whether the furanone affected P. aeruginosa protein synthesis. The wild type P. aeruginosa PAO1 strain containing the consitutive Gfp-expression vector pMH306 was grown in the presence of furanone 56 at concentrations from 0 to 10 μ/ml. Gfp-expression (fluorescence/OD600 nm) was throughout the growth cycle unaffected by the presence of furanone compound (data not shown).

[3] = test system: las quorum sensing system (lasB-gfp(ASV) expression); test: PlasB-gfp(ASV) reporter in planktonic wild type P. aeruginosa PAO1; details: for reduction in lasB(ASV) expression: wild type P. aeruginosa
Procedure: AHL and furanone bioassay. Strains were grown exponentially in LB or ABt medium supplemented with 0.5% glucose at 30° C., shading at 250 rpm. At an optical density of approximately 0.8. the cultures were diluted and split into subcultures in glass culture flasks. AHLs and furanone 56 were added to appropriate concentrations and the cultures were further incubated at 30° C. under vigorous shaking. Culture samples were retrieved at various time intervals and green fluorescence was measured with a fluorometer (model RF-1501, Shimadzu, Tokyo, Japan) set at an excitation wavelength of 475 nm and emission wavelength of 515 nm. Relative fluorescence was calculated as green fluorescence normalized to 1 ml culture divided by the optical density (OD600 nm.
The PlasB-gfp(ASV) reporter was inserted into the chromosome of wild type P. aeruginosa. […] The quorum size for lasB-gfp(ASV) induction corresponded to a cell density slightly above […] of 1.0, which is in agreement with other reports (Brumilk & Storey, 1992).

[4] = test system: protein synthesis (araC-PBAD-gfp(ASV)); test: araC-PBAD-gfp(ASV) expression in biofilm, protein synthesis control; details: furanone 56 below 10 μg/ml, 0.2% L-arabinose; data not shown
Procedure: To determine if the furanone-mediated inhibition of green fluorescence is due to subtle non-specific effects on protein synthesis when the bacteria are growing in a biofilm, we examined expression of green fluorescence in cells harboring the araC-PBAD-gfp(ASV) cassette induced by suboptimal levels of L-arabinose is (0.2%). The cells became green fluorescent within 2 hours after induction.

O=C1C=C/C(=C/Br)O1 [furanone 56]
reporter system in biofilms ([1]; 5 μg/ml furanone 56): partially shut down | complete inhibition of the lasB-gfp(ASV) reporter in all biofilm bacteria ([1]; concentrations with no effect on growth (<10 μg/ml)): not achievable | bacterial signaling (green fluorescence) ([1]; day 1, 5 μg/ml furanone 56): greatly reduced | early biofilm formation ([1]; day 1, 5 μg/ml furanone 56): not or only slightly affected | green fluorescence of biofilm cells ([1]; day 7, 5 μg/ml furanone 56): far less green fluorescence | average biofilm thickness ([1]; day 7, 5 μg/ml furanone 56 (untreated 61±6 μm)): 23±4 μm | biofilm maturation ([1]; wild type biofilm grown in the presence of furanone): failed to mature | Gfp-expression (fluorescence/OD600 nm) throughout the growth cycle [2]: unaffected | reduction in lasB(ASV) expression ([3]; 5 μg/ml (28.5 μM) furanone): 40% | reduction in lasB(ASV) expression ([3]; 10 μg/ml furanone): 60% | reduction of transcription of the lasB promoter ([3]; planktonic cultures of PAO1): approximately 2 fold | effect on Gfp-expression [4]: no effect on Gfp-expression
